Calls of active or inactive are those of the source. The rule behind the calls is not given here.
How the values were obtained:
[1] = biological target: T1, Retinoic acid receptor RXR-alpha (Homo sapiens) (UniProt P19793); assay: Agonist activity at RXRalpha expressed in […] Cos1 cells after 18 hrs by SEAP reporter gene assay; type: functional, cell-based
T1 sequence (whole entry): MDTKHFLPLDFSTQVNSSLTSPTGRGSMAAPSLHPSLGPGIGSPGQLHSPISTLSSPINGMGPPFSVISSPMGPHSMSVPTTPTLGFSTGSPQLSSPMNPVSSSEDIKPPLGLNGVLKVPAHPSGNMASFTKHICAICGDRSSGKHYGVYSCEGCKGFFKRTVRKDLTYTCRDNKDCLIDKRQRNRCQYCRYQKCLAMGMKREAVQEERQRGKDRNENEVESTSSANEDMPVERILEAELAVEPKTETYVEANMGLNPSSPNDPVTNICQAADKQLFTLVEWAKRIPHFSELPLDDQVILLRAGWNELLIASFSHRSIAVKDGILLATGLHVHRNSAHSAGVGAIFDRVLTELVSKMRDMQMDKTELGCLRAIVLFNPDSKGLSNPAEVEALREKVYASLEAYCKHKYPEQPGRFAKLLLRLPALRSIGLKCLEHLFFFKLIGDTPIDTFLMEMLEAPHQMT

[2] = biological target: T2, Peroxisome proliferator-activated receptor gamma (Homo sapiens) (UniProt P37231); assay: Agonist activity at PPARgamma expressed in […] Cos1 cells after 18 hrs by SEAP reporter gene assay; type: functional, cell-based
T2 sequence (whole entry): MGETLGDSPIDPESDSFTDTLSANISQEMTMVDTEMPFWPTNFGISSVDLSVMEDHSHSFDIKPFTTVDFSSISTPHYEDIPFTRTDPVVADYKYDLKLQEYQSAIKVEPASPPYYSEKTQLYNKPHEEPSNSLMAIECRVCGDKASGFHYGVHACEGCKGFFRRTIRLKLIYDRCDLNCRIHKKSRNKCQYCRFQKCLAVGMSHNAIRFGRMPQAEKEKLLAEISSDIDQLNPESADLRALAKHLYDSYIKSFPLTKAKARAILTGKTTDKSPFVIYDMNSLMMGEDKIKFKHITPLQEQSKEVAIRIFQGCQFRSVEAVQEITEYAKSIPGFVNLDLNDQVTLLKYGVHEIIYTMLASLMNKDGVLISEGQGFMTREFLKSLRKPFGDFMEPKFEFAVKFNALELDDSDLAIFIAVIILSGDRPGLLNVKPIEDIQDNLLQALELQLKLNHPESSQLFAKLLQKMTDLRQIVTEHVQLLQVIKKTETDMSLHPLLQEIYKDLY

[3] = biological target: RXR alpha/PPAR gamma (Homo sapiens) (UniProt P37231+P19793); assay: Agonist activity at PPARgamma/RXRalpha expressed in […] Cos1 cells after 18 hrs by SEAP reporter gene assay; type: functional, cell-based
[4] = biological target: T3, Oxysterols receptor LXR-alpha (Homo sapiens) (UniProt Q13133); assay: Agonist activity at LXRalpha expressed in […] Cos1 cells after 18 hrs by SEAP reporter gene assay; type: functional, cell-based
T3 sequence (whole entry): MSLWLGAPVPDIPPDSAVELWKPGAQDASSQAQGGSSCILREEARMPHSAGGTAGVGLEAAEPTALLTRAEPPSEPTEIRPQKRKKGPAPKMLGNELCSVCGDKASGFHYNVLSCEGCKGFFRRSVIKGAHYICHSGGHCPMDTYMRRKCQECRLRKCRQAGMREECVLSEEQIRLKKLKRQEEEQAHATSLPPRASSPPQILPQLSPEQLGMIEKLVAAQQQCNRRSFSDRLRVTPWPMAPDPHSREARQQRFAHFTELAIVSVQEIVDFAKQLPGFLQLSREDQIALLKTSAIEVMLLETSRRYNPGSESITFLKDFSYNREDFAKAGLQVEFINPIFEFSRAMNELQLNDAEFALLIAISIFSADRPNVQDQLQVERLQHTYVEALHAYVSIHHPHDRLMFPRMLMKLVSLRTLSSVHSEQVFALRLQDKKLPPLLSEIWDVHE

[5] = biological target: Retinoic acid receptor RXR-alpha/oxysterols receptor LXR-alpha (Homo sapiens) (UniProt P19793+Q13133); assay: Agonist activity at LXRalpha/RXRalpha expressed in […] Cos1 cells after 18 hrs by SEAP reporter gene assay; type: functional, cell-based
Serum = assay: Drug level in ICR mouse serum at 30 mg/kg, po; type: ADME, organism-based; parameters: dose 30 mg/kg, route oral; conditions: in vivo, read-out: Drug uptake
Mus musculus [6] = assay: Toxicity in ICR mouse assessed as increase in body weight at 30 mg/kg/day, po for 7 days relative to vehicle-treated control; type: organism-based; parameters: route oral; conditions: in vivo, 168 h
Mus musculus [7] = assay: Toxicity in ICR mouse assessed as increase in liver weight at 30 mg/kg/day, po for 7 days relative to vehicle-treated control; type: organism-based; parameters: route oral; conditions: in vivo, 168 h
Rattus norvegicus = assay: Toxicity in male Sprague-Dawley rat assessed as enlarged testes at 30 mg/kg/day, po for 28 days relative to vehicle-treated control; type: organism-based, Testis; parameters: route oral; conditions: in vivo, 672 h
Mus musculus [8] = assay: Upregulation of Irs2 mRNA expression in KK-Ay mouse liver at 10 mg/kg/day, po administered for 14 days by RT-PCR analysis; type: functional, organism-based
Mus musculus [9] = assay: Upregulation of Slc2a1 mRNA expression in KK-Ay mouse liver at 10 mg/kg/day, po administered for 14 days by RT-PCR analysis; type: functional, organism-based
Mus musculus [10] = assay: Upregulation of Slc2a2 mRNA expression in KK-Ay mouse liver at 10 mg/kg/day, po administered for 14 days by RT-PCR analysis; type: functional, organism-based
Mus musculus [11] = assay: Downregulation of G6p mRNA expression in KK-Ay mouse liver at 10 mg/kg/day, po administered for 14 days by RT-PCR analysis; type: functional, organism-based
Mus musculus [12] = assay: Downregulation of Pck mRNA expression in KK-Ay mouse liver at 10 mg/kg/day, po administered for 14 days by RT-PCR analysis; type: functional, organism-based
Mus musculus [13] = assay: Upregulation of Fasn mRNA expression in KK-Ay mouse liver at 10 mg/kg/day, po administered for 14 days by RT-PCR analysis; type: ADME, organism-based; parameters: route oral; conditions: in vivo, 336 h
Mus musculus [14] = assay: Toxicity in ICR mouse assessed as increase in serum triglyceride level at 30 mg/kg/day, po for 7 days relative to vehicle-treated control; type: organism-based; parameters: route oral; conditions: in vivo, 168 h
Mus musculus [15] = assay: Antidiabetic activity in diabetic, obese KK-Ay mouse assessed as blood glucose level at 10 mg/kg/day, po administered for 14 days measured on day 3 after starting of dosing (reference value: 500 mg/dL); type: functional
Mus musculus [16] = assay: Antidiabetic activity in diabetic, obese KK-Ay mouse assessed as increase in adiponectin level at 10 mg/kg/day, po administered for 14 days by oral glucose tolerance test; type: functional, organism-based
Mus musculus [17] = assay: Toxicity in KK-Ay mouse assessed as increase in body weight at 10 mg/kg/day, po administered for 14 days relative to vehicle-treated control; type: organism-based; parameters: route oral; conditions: in vivo, 336 h
Mus musculus [18] = assay: Toxicity in KK-Ay mouse assessed as increase in liver weight at 10 mg/kg/day, po administered for 14 days relative to vehicle-treated control; type: organism-based; parameters: route oral; conditions: in vivo, 336 h
Mus musculus [19] = assay: Toxicity in KK-Ay mouse assessed as increase in serum triglyceride level at 10 mg/kg/day, po administered for 14 days relative to vehicle-treated control; type: organism-based; parameters: route oral; conditions: in vivo, 336 h
Mus musculus [20] = assay: Toxicity in KK-Ay mouse assessed as increase in total cholesterol level at 10 mg/kg/day, po administered for 14 days relative to vehicle-treated control; type: organism-based; parameters: route oral; conditions: in vivo, 336 h
Mus musculus [21] = assay: Upregulation of Irs1 mRNA expression in KK-Ay mouse liver at 10 mg/kg/day, po administered for 14 days by RT-PCR analysis; type: functional, organism-based
Mus musculus [22] = assay: Upregulation of Scd1 mRNA expression in KK-Ay mouse liver at 10 mg/kg/day, po administered for 14 days by RT-PCR analysis; type: ADME, organism-based; parameters: route oral; conditions: in vivo, 336 h
Mus musculus [23] = assay: Upregulation of Srebp1c mRNA expression in KK-Ay mouse liver at 10 mg/kg/day, po administered for 14 days by RT-PCR analysis; type: functional, organism-based

Row | Activity [2] | Activity [3] | Activity [4] | Activity [5] | concentration (Serum) [nM] | SMILES | Activity (Mus musculus [6]) | Activity (Mus musculus [7]) | Activity (Rattus norvegicus) | also measured
1 | inactive | Active | Active | Active | 1000 | Cc1cc2c(cc1-n1c(C)nc3cc(C(=O)O)ccc31)C(C)(C)CCC2(C)C | Toxic | Toxic | Non-toxic | Activity [1]: Active
2 | – | – | – | – | 1000 | Cc1cc2c(cc1-n1nnc3cc(C(=O)O)ccc31)C(C)(C)CCC2(C)C | – | – | – | –
3 | inactive | Active | Active | Active | 1000 | CCN(c1ccc2c(c1)C(C)(C)CCC2(C)C)c1ccc(C(=O)O)cn1 | Toxic | Toxic | Non-toxic | Activity (Mus musculus [8]): inactive; Activity (Mus musculus [9]): inactive; Activity (Mus musculus [10]): inactive; Activity (Mus musculus [11]): inactive; Activity (Mus musculus [12]): inactive; Activity (Mus musculus [13]): Toxic; Activity (Mus musculus [14]): Toxic; Activity (Mus musculus [15]): 300 mg/dL; Activity (Mus musculus [16]): Active; Activity (Mus musculus [17]): Toxic; Activity (Mus musculus [18]): Toxic; Activity (Mus musculus [19]): Toxic; Activity (Mus musculus [20]): Toxic; Activity (Mus musculus [21]): inactive; Activity (Mus musculus [22]): Toxic; Activity (Mus musculus [23]): inactive
